# Experimental data published in patent publication US20240174637A1, “DEGRADERS OF GRK2 AND USES THEREOF” (Sonata Therapeutics, Inc., priority 2021, published 2024).
# Where two headings read alike, the source gives them in different places.
# Assays:
# PAXF1657 KO Clone #4 = assay: 7-day cellular proliferation assay (CellTiter-Glo), PAXF1657 KO Clone #4; assay type: cell-based
# Outline: (§1)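 Read-out is CellTiter-Glo luminescence after 7 days of continuous exposure, with compound re-dosed in fresh medium at day 3. Cells were seeded at 500/well and treated across 30 μM-0.0002 μM (10 points, 0.3% DMSO); baseline viability plates were read at compound addition.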
# GRK2 [1] = molecular target: T1, GRK2 (Homo sapiens, UniProt P25098); assay: GRK2 Inhibition Assay (TR-FRET, Example 1); assay type: biochemical
# T1 sequence (P25098 1-689): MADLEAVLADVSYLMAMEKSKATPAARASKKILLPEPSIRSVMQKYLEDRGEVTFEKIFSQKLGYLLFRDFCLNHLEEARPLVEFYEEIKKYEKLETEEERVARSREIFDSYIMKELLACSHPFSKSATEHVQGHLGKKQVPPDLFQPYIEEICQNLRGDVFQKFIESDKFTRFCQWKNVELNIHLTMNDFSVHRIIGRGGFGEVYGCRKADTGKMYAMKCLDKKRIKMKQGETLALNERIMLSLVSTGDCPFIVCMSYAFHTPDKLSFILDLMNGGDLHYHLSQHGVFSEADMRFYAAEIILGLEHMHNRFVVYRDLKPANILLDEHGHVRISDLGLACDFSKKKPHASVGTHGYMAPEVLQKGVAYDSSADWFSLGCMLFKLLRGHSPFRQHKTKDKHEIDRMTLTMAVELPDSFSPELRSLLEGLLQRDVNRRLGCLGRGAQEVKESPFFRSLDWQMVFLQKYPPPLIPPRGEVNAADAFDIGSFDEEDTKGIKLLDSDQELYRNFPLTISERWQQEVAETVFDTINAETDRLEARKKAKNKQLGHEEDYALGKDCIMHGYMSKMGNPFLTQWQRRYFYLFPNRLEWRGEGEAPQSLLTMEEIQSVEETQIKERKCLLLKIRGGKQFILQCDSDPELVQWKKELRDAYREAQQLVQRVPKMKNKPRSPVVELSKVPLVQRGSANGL
# Method: Assay: GRK2 enzyme (1 nM final concentration) was diluted in 25 mM HEPES, 10 mM MgCl2, 2 mM DTT, 0.01% Tween-20, and 1 mM EGTA. Then the GRK2 mixture was added into ProxiPlate-384 white plate and pre-incubated for 30 min with test compounds at room temperature. ATP (7 μM final concentration) and Ulight TopoIIα (50 nM final concentration) were added into the assay plate to initiate the reaction and the mixture was incubated at room temperature for 90 min. Then, Eu anti-TopoIIα (0.12 nM final concentration), BSA (0.01% final concentration), and EDTA (11 mM final concentration) in LANCE assay buffer were added into each well. After 60 min incubation time at room temperature, TR-FRET signal was measured by EnVision plate reader.
# PAXF1657 EV = assay: 7-day cellular proliferation assay (CellTiter-Glo), PAXF1657 EV; assay type: cell-based
# Outline: as §1
# GRK2 [2] = molecular target: T1, GRK2; assay: GRK2 Degradation Assay and Western Blot in PAXF1657 cells; assay type: cell-based; parameters: endogenous in cells; host or cells: PAXF1657
# Outline: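 PAXF1657 cells grown to 70% confluency, then treated with compounds at 0–10 μM for 6 to 24 h at 37 °C. Lysates in PBS with 1% NP40 run on SDS-PAGE. GRK2 protein detected by western blot with β-actin as loading reference, using ECL chemiluminescence.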
# [3] = 168 h, 7-day, read-out: 7-day proliferation assay: IC50 GeoMean (uM) [Cell Line: PAXF1657 KO Clone #4]
# [4] = TR-FRET, 7 μM ATP, read-out: Enzymatic GRK2 Assay: IC50 (nM) (Example 1)
# [5] = 168 h, 7-day, read-out: 7-day proliferation assay: IC50 GeoMean (uM) [Cell Line: PAXF1657 EV]
# [6] = 0.3 uM, PAXF1657 EV, 24 hrs, read-out: % GRK2 degradation at 0.3 uM in PAXF1657 EV (24 hrs)
# [7] = 1 uM, PAXF1657 EV, 24 hrs, read-out: % GRK2 degradation at 1 uM in PAXF1657 EV (24 hrs)
# [8] = 3 uM, PAXF1657 EV, 24 hrs, read-out: % GRK2 degradation at 3 uM in PAXF1657 EV (24 hrs)
# [9] = proliferation, read-out: GeoMean IC50 (uM) PAXF1657 KO Clone #4
# [10] = Table 4, Example 1 assay, read-out: Enzymatic GRK2 IC50: Av IC50 GRK2
# [11] = proliferation, read-out: GeoMean IC50 (UM) PAXF1657 EV
# [12] = Conc 0.3 uM, read-out: Degradation Assay - 3 point: Degradation (%)
# [13] = Conc 1 uM, read-out: Degradation Assay - 3 point: Degradation (%)
# [14] = Conc 3 uM, read-out: Degradation Assay - 3 point: Degradation (%)
SMILES,IC50 (GRK2 [1]; [4]),inhibition at 0.3 µM (GRK2 [2]; [6]),inhibition at 1 µM (GRK2 [2]; [7]),inhibition at 3 µM (GRK2 [2]; [8]),"% GRK2 degradation at 0.03 uM in PAXF1657 EV (24 hrs) (GRK2 [2]; 0.03 uM, PAXF1657 EV, 24 hrs)","% GRK2 degradation at 0.1 uM in PAXF1657 EV (24 hrs) (GRK2 [2]; 0.1 uM, PAXF1657 EV, 24 hrs)","% GRK2 degradation at 10 uM in PAXF1657 EV (24 hrs) (GRK2 [2]; 10 uM, PAXF1657 EV, 24 hrs)",IC50 (GRK2 [1]; [10]),inhibition at 0.3 µM (GRK2 [2]; [12]),inhibition at 1 µM (GRK2 [2]; [13]),inhibition at 3 µM (GRK2 [2]; [14]),IC50 (PAXF1657 KO Clone #4; [3]),IC50 (PAXF1657 EV; [5]),IC50 (PAXF1657 KO Clone #4; [9]),IC50 (PAXF1657 EV; [11])
"Cc1ncsc1-c1ccc(CNC(=O)[C@@H]2C[C@@H](O)CN2C(=O)[C@@H](NC(=O)CCCCCOCCOCCOCCCCCCOc2cccc([C@@H](C)NC(=O)c3cccc(NCc4nnc(-c5ccncn5)n4C)c3)c2)C(C)(C)C)cc1 [Compound D79, (2S,4R)-1-((S)-2-(tert-butyl)-22-(3-((R)-1-(3-(((4-methyl-5-(pyrimidin-4-yl)-4H-1,2,4-triazol-3-yl)methyl)amino)benzamido)ethyl)phenoxy)-4-oxo-10,13,16-trioxa-3-azadocosan-1-oyl)-4-hydroxy-N-(4-(4-methylthiazol-5-yl)benzyl)pyrrolidine-2-carboxamide]",< 100 nM,52%,54%,8%,–,–,–,–,–,–,–,> 10 µM,< 1 µM,–,–
Cc1ncsc1-c1ccc(CNC(=O)[C@@H]2C[C@@H](O)CN2C(=O)[C@@H](NC(=O)CCCCCOCCOCCOCCCCCCOc2ccc(CNC(=O)c3cccc(NCc4nnc(-c5ccncn5)n4C)c3)cc2)C(C)(C)C)cc1 [Compound D87],< 100 nM,–,23%,18%,–,–,–,–,–,–,–,> 10 µM,1 to 10 µM,–,–
"Cc1ncsc1-c1ccc(CNC(=O)[C@@H]2C[C@@H](O)CN2C(=O)[C@@H](NC(=O)CCCCCOCCOCCOCCCCCCOc2cccc(C(C)NC(=O)c3cccc(NCc4nnc(-c5ccncn5)n4C)c3)c2)C(C)(C)C)cc1 (stereo partly drawn) [Compound D91, (2S,4R)-1-((2S)-2-(tert-butyl)-22-(3-(1-(3-(((4-methyl-5-(pyrimidin-4-yl)-4H-1,2,4-triazol-3-yl)methyl)amino)benzamido)ethyl)phenoxy)-4-oxo-10,13,16-trioxa-3-azadocosan-1-oyl)-4-hydroxy-N-(4-(4-methylthiazol-5-yl)benzyl)pyrrolidine-2-carboxamide]",< 100 nM,42%,51%,16%,37%,28%,−4%,–,–,–,–,1 to 10 µM,< 1 µM,–,–
"Cc1ncsc1-c1ccc(CNC(=O)[C@@H]2C[C@@H](O)CN2C(=O)[C@@H](NC(=O)CCCCCOCCOCCOCCCCCCOc2ccc(C(F)(F)F)c(CNC(=O)c3cccc(NCc4nnc(-c5ccncn5)n4C)c3)c2)C(C)(C)C)cc1 [Compound D92, (2S,4R)-1-((S)-2-(tert-butyl)-22-(3-((3-(((4-methyl-5-(pyrimidin-4-yl)-4H-1,2,4-triazol-3-yl)methyl)amino)benzamido)methyl)-4-(trifluoromethyl)phenoxy)-4-oxo-10,13,16-trioxa-3-azadocosan-1-oyl)-4-hydroxy-N-(4-(4-methylthiazol-5-yl)benzyl)pyrrolidine-2-carboxamide]",< 100 nM,34%,12%,5%,–,–,–,–,–,–,–,> 10 µM,< 1 µM,–,–
Cc1ncsc1-c1ccc(CNC(=O)[C@@H]2C[C@@H](O)CN2C(=O)[C@@H](NC(=O)CCCOCCOCCOCCCCCCOc2ccc([C@@H](C)NC(=O)c3cccc(NCc4nnc(-c5ccncn5)n4C)c3)cc2)C(C)(C)C)cc1 [Compound D116],–,–,–,–,–,–,–,6.6 nM,15%,30%,-40%,–,–,7.48 µM,1.88 µM

# The next lines start with results.
IC50 (GRK2 [1]; [4]),inhibition at 0.3 µM (GRK2 [2]; [6]),inhibition at 1 µM (GRK2 [2]; [7]),inhibition at 3 µM (GRK2 [2]; [8]),"% GRK2 degradation at 0.03 uM in PAXF1657 EV (24 hrs) (GRK2 [2]; 0.03 uM, PAXF1657 EV, 24 hrs)","% GRK2 degradation at 0.1 uM in PAXF1657 EV (24 hrs) (GRK2 [2]; 0.1 uM, PAXF1657 EV, 24 hrs)","% GRK2 degradation at 10 uM in PAXF1657 EV (24 hrs) (GRK2 [2]; 10 uM, PAXF1657 EV, 24 hrs)",IC50 (GRK2 [1]; [10]),inhibition at 0.3 µM (GRK2 [2]; [12]),inhibition at 1 µM (GRK2 [2]; [13]),inhibition at 3 µM (GRK2 [2]; [14]),SMILES,IC50 (PAXF1657 KO Clone #4; [3]),IC50 (PAXF1657 EV; [5]),IC50 (PAXF1657 KO Clone #4; [9]),IC50 (PAXF1657 EV; [11])
< 100 nM,6%,0%,23%,–,–,–,–,–,–,–,Cc1ncsc1-c1ccc(CNC(=O)[C@@H]2C[C@@H](O)CN2C(=O)[C@@H](NC(=O)CCCCc2cn(CCCCCOc3cccc(CNC(=O)c4cccc(NCc5nnc(-c6ccncn6)n5C)c4)c3)nn2)C(C)(C)C)cc1 [Compound D80],> 10 µM,> 10 µM,–,–
< 100 nM,–,16%,24%,–,–,–,–,–,–,–,Cc1ncsc1-c1ccc(CNC(=O)[C@@H]2C[C@@H](O)CN2C(=O)[C@@H](NC(=O)CCCc2cn(CCCCCCOc3cccc(CNC(=O)c4cccc(NCc5nnc(-c6ccncn6)n5C)c4)c3)nn2)C(C)(C)C)cc1 [Compound D86],> 10 µM,> 10 µM,–,–
< 100 nM,–,23%,20%,–,–,–,–,–,–,–,Cc1ncsc1-c1ccc([C@H](C)NC(=O)[C@@H]2C[C@@H](O)CN2C(=O)[C@@H](NC(=O)CCCCCOCCOCCOCCCCCCOc2cccc(CNC(=O)c3cccc(NCc4nnc(-c5ccncn5)n4C)c3)c2)C(C)(C)C)cc1 [Compound D90],> 10 µM,1 to 10 µM,–,–
< 100 nM,–,70%,73%,–,–,–,–,–,–,–,"CN[C@@H](C)C(=O)N[C@H](C(=O)N1CCC[C@H]1c1nc(C(=O)c2cccc(OCc3cn(CCCCCCOc4cccc(CNC(=O)c5cccc(NCc6nnc(-c7ccncn7)n6C)c5)c4)nn3)c2)cs1)C1CCCCC1 [Compound D102, N-(3-((6-(4-((3-(2-((S)-1-((S)-2-cyclohexyl-2-((S)-2-(methylamino)propanamido)acetyl)pyrrolidin-2-yl)thiazole-4-carbonyl)phenoxy)methyl)-1H-1,2,3-triazol-1-yl)hexyl)oxy)benzyl)-3-(((4-methyl-5-(pyrimidin-4-yl)-4H-1,2,4-triazol-3-yl)methyl)amino)benzamide]",1 to 10 µM,< 1 µM,–,–
–,–,–,–,–,–,–,8.71 nM,87%,86%,85%,CN[C@@H](C)C(=O)N[C@H](C(=O)N1CCC[C@H]1c1nc(C(=O)c2cccc(OCc3cn(CCCCCCOc4cccc([C@@H](C)NC(=O)c5cccc(NCc6nnc(-c7ccncn7)n6C)c5)c4)nn3)c2)cs1)C1CCCCC1 [Compound D105],–,–,3.72 µM,0.11 µM
–,–,–,–,–,–,–,54.9 nM,26.1%,45.9%,66.6%,"Cc1ncsc1-c1ccc(CNC(=O)[C@@H]2C[C@@H](O)CN2C(=O)[C@@H](NC(=O)CCCCOCCOCCOCCCCCCOc2cccc(CNC(=O)c3cccc(NCc4nnc(-c5ccncn5)n4C)c3)c2)C(C)(C)C)cc1 [Compound D109, (2S,4R)-1-((S)-2-(tert-butyl)-21-(3-((3-(((4-methyl-5-(pyrimidin-4-yl)-4H-1,2,4-triazol-3-yl)methyl)amino)benzamido)methyl)phenoxy)-4-oxo-9,12,15-trioxa-3-azahenicosan-1-oyl)-4-hydroxy-N-(4-(4-methylthiazol-5-yl)benzyl)pyrrolidine-2-carboxamide]",–,–,5.17 µM,0.68 µM
